Data: PMC10175918 (Communications Biology, 2023)
Read-outs that look alike come from different tables or passages of the source.

Columns and labels:
Test in all cases: TGFα-shedding assay-based GPCR screening with chimeric Gα subunit proteins
Assay type in all cases: cell-based
348 GPCRs [1] = target: T1, 348 GPCRs (Homo sapiens, UniProt P08588)
T1 construct: expressed in transfected cells; host or cells: HEK293A

348 GPCRs [2] = target: T2, 348 GPCRs (Homo sapiens, UniProt Q49SQ1); details: 10µM, Favipiravir 100μM
T2 construct: expressed in transfected cells; host or cells: HEK293A
T2 sequence (Q49SQ1 1-333): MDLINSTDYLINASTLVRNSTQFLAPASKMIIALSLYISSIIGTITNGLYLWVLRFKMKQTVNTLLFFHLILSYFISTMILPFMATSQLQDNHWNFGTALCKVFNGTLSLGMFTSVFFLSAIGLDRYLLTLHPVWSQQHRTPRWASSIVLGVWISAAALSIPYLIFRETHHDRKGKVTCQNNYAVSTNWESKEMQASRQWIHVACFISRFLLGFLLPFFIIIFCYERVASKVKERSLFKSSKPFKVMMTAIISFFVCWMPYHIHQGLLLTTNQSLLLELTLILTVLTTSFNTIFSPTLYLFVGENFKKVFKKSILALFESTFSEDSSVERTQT

348 GPCRs [3] = target: T3, 348 GPCRs (Homo sapiens, UniProt Q8IZF3)
T3 construct: expressed in transfected cells; host or cells: HEK293A
T3 sequence (Q8IZF3 22-695): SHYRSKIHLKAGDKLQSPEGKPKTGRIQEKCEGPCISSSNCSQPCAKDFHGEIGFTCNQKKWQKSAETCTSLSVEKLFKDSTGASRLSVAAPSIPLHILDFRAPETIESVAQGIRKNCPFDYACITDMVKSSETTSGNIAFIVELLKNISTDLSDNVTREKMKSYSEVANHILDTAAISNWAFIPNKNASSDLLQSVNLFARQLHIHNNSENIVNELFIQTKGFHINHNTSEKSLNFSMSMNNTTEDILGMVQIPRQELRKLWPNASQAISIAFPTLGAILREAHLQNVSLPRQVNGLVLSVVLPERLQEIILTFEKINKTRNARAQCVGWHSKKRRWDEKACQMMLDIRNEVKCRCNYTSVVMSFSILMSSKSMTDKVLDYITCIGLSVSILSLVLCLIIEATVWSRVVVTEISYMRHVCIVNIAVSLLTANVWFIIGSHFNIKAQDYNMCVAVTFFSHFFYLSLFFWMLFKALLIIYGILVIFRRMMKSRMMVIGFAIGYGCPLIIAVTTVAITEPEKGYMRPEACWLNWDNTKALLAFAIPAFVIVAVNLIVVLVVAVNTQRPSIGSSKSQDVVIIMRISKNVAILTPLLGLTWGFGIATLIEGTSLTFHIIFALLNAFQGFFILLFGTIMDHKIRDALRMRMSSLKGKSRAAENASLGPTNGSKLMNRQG

348 GPCRs [4] = target: T4, 348 GPCRs (Homo sapiens, UniProt Q8IZF4)
T4 construct: expressed in transfected cells; host or cells: HEK293A
T4 sequence (Q8IZF4 22-528): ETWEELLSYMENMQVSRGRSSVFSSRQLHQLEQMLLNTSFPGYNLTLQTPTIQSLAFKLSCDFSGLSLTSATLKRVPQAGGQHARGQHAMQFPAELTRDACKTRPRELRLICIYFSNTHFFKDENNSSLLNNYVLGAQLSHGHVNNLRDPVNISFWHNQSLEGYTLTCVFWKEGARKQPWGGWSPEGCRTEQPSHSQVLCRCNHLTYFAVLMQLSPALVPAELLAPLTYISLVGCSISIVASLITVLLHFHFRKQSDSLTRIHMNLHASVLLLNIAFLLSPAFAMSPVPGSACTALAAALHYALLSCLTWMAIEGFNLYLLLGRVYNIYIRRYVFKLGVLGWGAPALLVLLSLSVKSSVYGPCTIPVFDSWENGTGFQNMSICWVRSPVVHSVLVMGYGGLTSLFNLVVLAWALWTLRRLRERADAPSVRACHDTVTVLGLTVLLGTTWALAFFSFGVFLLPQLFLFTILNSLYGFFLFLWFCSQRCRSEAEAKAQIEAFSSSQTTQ

348 GPCRs [5] = target: T5, 348 GPCRs (Homo sapiens, UniProt Q8TDV0); details: 10µM, Favipiravir 100μM
T5 construct: expressed in transfected cells; host or cells: HEK293A
T5 sequence (Q8TDV0 1-419): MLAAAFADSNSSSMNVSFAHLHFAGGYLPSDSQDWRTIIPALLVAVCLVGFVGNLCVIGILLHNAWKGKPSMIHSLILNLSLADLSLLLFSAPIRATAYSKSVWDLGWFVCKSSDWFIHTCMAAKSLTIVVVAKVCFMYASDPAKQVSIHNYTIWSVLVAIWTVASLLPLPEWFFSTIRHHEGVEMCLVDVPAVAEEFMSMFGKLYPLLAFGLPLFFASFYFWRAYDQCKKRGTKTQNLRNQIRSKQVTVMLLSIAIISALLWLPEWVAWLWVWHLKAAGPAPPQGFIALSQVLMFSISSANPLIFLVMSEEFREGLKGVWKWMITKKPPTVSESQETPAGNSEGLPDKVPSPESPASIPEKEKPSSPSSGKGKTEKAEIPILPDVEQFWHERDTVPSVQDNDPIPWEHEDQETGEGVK

348 GPCRs [6] = target: T6, 348 GPCRs (Homo sapiens, UniProt Q969N4); details: 10µM, Favipiravir 100μM
T6 construct: expressed in transfected cells; host or cells: HEK293A
T6 sequence (Q969N4 1-342): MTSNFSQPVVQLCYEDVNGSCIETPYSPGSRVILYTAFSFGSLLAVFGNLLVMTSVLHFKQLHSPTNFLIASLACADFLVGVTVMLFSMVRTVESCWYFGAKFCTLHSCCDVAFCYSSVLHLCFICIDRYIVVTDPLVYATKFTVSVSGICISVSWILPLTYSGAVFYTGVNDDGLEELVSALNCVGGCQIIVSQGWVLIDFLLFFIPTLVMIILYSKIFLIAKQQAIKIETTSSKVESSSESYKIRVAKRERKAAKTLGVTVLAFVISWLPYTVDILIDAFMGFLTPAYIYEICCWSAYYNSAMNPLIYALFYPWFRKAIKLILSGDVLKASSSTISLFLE

[7] = GPCR β1 (adrenoceptor beta 1), read-out: % GPCR activation compared to TPA
[8] = GPR33 (G protein-coupled receptor 33), read-out: % GPCR activation compared to TPA
[9] = GPCR GPR115 (G-protein-coupled receptor 115 (ADGRF4)), read-out: % GPCR activation compared to TPA
[10] = GPCR GPR114 (G-protein-coupled receptor 114 (ADGRG5)), read-out: % GPCR activation compared to TPA
[11] = GPR151 (G Protein-Coupled Receptor 151), read-out: % GPCR activation compared to TPA
[12] = TAAR8 (trace amine associated receptor 8), read-out: % GPCR activation compared to TPA
[13] = read-out: % GPCR activation compared to TPA, GPCR β1 (adrenoceptor beta 1)
[14] = read-out: % GPCR activation compared to TPA, GPR33 (G protein-coupled receptor 33)
[15] = read-out: % GPCR activation compared to TPA, GPCR GPR115 (G-protein-coupled receptor 115 (ADGRF4))
[16] = read-out: % GPCR activation compared to TPA, GPCR GPR114 (G-protein-coupled receptor 114 (ADGRG5))
[17] = read-out: % GPCR activation compared to TPA, GPR151 (G Protein-Coupled Receptor 151)
[18] = read-out: % GPCR activation compared to TPA, TAAR8 (trace amine associated receptor 8)

T1 sequence (P08588 whole entry): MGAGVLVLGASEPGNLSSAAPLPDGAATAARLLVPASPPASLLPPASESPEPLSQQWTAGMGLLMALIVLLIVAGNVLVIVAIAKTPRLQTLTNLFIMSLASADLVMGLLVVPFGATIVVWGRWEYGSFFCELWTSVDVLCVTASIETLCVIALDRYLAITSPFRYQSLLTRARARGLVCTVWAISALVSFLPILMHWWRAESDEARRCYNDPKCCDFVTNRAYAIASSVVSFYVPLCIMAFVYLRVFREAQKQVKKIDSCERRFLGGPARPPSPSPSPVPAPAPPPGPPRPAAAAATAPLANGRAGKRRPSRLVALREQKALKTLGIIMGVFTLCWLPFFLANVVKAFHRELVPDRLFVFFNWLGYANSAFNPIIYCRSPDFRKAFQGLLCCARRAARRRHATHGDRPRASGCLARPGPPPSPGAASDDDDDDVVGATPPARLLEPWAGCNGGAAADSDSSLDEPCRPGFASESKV

| activation at 10 µM (348 GPCRs [1]; [7]) | activation at 10 µM (348 GPCRs [2]; [8]) | activation at 10 µM (348 GPCRs [3]; [9]) | activation at 10 µM (348 GPCRs [4]; [10]) | activation at 10 µM (348 GPCRs [5]; [11]) | activation at 100 µM (348 GPCRs [6]; [12]) | activation at 100 µM (348 GPCRs [1]; GPCR β1 (adrenoceptor beta 1), 100μM, read-out: % GPCR activation compared to TPA) | activation at 100 µM (348 GPCRs [3]; GPCR GPR115 (G-protein-coupled receptor 115 (ADGRF4)), 100μM, read-out: % GPCR activation compared to TPA) | activation at 100 µM (348 GPCRs [4]; GPCR GPR114 (G-protein-coupled receptor 114 (ADGRG5)), 100μM, read-out: % GPCR activation compared to TPA) | SMILES | activation at 10 µM (348 GPCRs [1]; [13]) | activation at 10 µM (348 GPCRs [2]; [14]) | activation at 10 µM (348 GPCRs [3]; [15]) | activation at 10 µM (348 GPCRs [4]; [16]) | activation at 10 µM (348 GPCRs [5]; [17]) | activation at 100 µM (348 GPCRs [6]; [18]) |
| --- | --- | --- | --- | --- | --- | --- | --- | --- | --- | --- | --- | --- | --- | --- | --- |
| -0.381% | 3.02% | -3.61% | -2.76% | -2.28% | -1.62% | – | – | – | N#C[C@@]1(c2ccc3c(N)ncnn23)O[C@H](CO)[C@@H](O)[C@H]1O [GS441524] | – | – | – | – | – | – |
| – | -0.127% | – | – | -0.974% | 0.473% | -1.4% | -2.79% | -2.55% | NC(=O)c1nc(F)cnc1O [favipiravir, 6-fluoro-3-hydroxy-2-pyrazinecarboxamide] | – | – | – | – | – | – |
| 0.738% | -3.96% | -1.43% | -2.86% | -2.68% | -0.135% | – | – | – | CC(C)C(=O)OC[C@H]1O[C@@H](n2ccc(NO)nc2=O)[C@H](O)[C@@H]1O [molnupiravir] | – | – | – | – | – | – |
| – | – | – | – | – | – | – | – | – | CCC(CC)COC(=O)[C@H](C)N[P@](=O)(OC[C@H]1O[C@@](C#N)(c2ccc3c(N)ncnn23)[C@H](O)[C@@H]1O)Oc1ccccc1 [remdesivir] | 1.07% | 2.55% | -1.78% | -1.51% | -3.65% | 0.465% |
| – | – | – | – | – | – | – | – | – | CC(C)OC(=O)[C@H](C)N[P@](=O)(OC[C@H]1O[C@@H](n2ccc(=O)[nH]c2=O)[C@](C)(F)[C@@H]1O)Oc1ccccc1 [sofosbuvir] | 1.27% | -2.13% | -1.19% | 0.492% | -2.06% | -2.21% |
